Assay results: PMC6934184, “Selective DNA-PKcs inhibition extends the therapeutic index of localized radiotherapy and chemotherapy” (The Journal of Clinical Investigation, 2019)

Biological target: T1, EPHA4 (Homo sapiens, UniProt P54764)
T1 construct: purchased Thermo Fisher Scientific (Life Technologies) SelectScreen
Experiment: SelectScreen Z'LYTE
Assay type: biochemical
Outline: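 NU5455 was profiled across the SelectScreen Broad panel of kinase activity and binding assays. Z'LYTE reactions such as CSF1R ran at apparent Km ATP, while the Adapta CAMK1 assay used ATP listed as 10. Values are given as percent.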

T1 sequence (P54764 20-986): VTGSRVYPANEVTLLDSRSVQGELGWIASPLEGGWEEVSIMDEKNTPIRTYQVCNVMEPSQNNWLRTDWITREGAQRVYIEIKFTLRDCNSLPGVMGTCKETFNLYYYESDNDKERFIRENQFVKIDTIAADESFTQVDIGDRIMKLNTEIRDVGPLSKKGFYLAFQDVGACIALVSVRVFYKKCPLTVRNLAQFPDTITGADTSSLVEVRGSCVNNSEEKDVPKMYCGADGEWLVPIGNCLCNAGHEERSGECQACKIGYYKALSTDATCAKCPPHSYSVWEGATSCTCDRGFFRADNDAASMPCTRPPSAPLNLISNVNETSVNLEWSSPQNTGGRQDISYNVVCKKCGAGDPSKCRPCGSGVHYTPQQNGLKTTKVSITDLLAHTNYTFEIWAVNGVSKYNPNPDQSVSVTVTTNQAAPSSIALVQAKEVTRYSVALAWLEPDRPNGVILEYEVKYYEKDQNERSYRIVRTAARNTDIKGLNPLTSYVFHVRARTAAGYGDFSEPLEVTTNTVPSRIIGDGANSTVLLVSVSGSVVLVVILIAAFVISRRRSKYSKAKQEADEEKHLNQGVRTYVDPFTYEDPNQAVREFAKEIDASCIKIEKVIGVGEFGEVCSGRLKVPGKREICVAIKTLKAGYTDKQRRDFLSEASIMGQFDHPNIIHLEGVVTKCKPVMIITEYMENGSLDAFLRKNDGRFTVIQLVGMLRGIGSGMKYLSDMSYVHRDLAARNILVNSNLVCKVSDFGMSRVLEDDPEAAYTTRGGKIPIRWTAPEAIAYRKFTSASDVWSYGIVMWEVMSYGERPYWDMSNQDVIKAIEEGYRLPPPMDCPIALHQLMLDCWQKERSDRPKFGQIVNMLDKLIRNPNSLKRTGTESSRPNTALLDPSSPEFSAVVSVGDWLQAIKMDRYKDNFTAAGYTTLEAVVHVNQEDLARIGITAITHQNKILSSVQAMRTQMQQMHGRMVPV

Structure (SMILES): CN(C(=O)CN1CCOCC1)c1ccc2sc3c(-c4cccc5c(=O)cc(N6CC7CCC(C6)O7)oc45)cccc3c2c1 [NU5455]
- inhibition at 1 µM: 2.9%
